Source: patent US8148391B2 (Cephalon, Inc., priority 2006, dated 2012)
Read-outs that look alike come from different tables or passages of the source.

What was measured:
[1] = target: T1, baculovirus-expressed ALK (Homo sapiens, UniProt Q9UM73); assay: ALK Kinase Assay (ELISA-type, time-resolved fluorescence); format: biochemical
T1 construct: host or cells: baculovirus expression system
Outline: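 Plates coated with phospholipase C-γ substrate (10 μg/mL in TBS); reaction started with 30 ng/ml ALK and run 15 min at 37° C. Phosphorylated substrate detected with Eu-N1-labeled PT66 antibody. IC50 from sigmoidal variable-slope fit of percent inhibition vs log concentration.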

[2] = target: T2, c-Met (cytoplasmic domain) (Homo sapiens, UniProt P08581); assay: c-Met Kinase Assay (same methods as for ALK, with modifications); format: biochemical
T2 construct: 10 ng/mL c-Met (cytoplasmic domain, Invitrogen Corporation #PV3143); purchased Invitrogen Corporation PV3143
Outline: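 Europium-labeled PT66 antibody (Eu-N1) detects substrate phosphorylation on wells coated with phospholipase C-γ at 10 μg/mL. The kinase, the cytoplasmic domain of c-Met at 10 ng/mL, starts the reaction, which proceeds 15 minutes at 37° C.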

[3] = 1 μM ATP (Km level), read-out: ALK Activity (ALK Kinase Inhibition, IC50)
[4] = 1 μM ATP (Km level), read-out: cMet Activity (c-Met Kinase Inhibition, IC50)
[5] = ALK kinase inhibition, 1 μM ATP, read-out: ALK Activity
[6] = c-Met kinase inhibition, 1 μM ATP, read-out: cMet Activity
[7] = ALK kinase inhibition, 1 μM ATP (Km level), read-out: ALK Activity
[8] = c-Met kinase inhibition, 1 μM ATP (Km level), read-out: cMet Activity
[9] = 1 μM ATP (Km level), 30 ng/ml ALK, 37° C., 15 minutes, read-out: ALK Activity (ALK kinase inhibition, IC50 class)
[10] = 1 μM ATP (Km level), 10 ng/mL c-Met, read-out: cMet Activity (c-Met kinase inhibition, IC50 class)

T1 sequence (Q9UM73 19-1620): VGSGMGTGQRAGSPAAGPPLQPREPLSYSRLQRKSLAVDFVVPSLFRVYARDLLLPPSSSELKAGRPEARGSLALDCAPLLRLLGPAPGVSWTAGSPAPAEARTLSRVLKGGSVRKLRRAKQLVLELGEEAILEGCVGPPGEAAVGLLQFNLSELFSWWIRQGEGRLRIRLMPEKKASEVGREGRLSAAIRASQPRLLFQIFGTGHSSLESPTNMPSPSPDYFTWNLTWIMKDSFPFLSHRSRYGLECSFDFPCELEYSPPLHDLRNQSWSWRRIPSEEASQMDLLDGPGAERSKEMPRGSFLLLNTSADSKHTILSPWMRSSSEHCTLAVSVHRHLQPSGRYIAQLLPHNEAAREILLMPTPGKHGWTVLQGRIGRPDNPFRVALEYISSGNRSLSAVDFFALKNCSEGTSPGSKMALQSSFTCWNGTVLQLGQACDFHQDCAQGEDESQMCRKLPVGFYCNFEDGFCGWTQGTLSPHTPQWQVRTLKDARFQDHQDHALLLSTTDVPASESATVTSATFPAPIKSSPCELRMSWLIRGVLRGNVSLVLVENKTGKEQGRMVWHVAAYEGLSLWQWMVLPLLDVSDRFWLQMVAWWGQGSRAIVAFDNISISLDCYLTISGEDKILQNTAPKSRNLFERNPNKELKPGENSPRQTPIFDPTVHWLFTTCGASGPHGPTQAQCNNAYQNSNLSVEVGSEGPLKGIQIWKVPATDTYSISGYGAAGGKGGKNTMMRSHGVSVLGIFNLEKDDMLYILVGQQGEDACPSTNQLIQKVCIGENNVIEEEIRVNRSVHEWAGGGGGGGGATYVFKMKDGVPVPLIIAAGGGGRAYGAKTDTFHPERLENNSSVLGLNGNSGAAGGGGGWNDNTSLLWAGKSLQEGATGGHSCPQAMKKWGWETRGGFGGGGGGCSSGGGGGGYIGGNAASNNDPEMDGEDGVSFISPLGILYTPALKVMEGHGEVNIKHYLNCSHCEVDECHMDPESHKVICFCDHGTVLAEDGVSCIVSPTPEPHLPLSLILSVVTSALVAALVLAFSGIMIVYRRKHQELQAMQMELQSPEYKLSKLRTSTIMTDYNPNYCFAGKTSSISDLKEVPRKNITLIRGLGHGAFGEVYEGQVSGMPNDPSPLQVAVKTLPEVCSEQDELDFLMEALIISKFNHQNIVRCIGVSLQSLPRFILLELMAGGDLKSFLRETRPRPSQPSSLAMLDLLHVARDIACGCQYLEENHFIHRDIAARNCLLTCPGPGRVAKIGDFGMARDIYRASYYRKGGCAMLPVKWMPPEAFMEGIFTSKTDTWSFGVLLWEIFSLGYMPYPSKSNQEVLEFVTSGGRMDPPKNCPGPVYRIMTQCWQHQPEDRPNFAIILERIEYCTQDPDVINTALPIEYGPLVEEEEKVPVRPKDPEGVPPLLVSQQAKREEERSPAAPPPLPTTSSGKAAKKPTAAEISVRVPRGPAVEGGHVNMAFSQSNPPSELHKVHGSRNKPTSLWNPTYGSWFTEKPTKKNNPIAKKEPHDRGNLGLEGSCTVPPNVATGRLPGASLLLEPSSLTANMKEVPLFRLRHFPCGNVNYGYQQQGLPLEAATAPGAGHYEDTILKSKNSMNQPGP
T2 sequence (P08581 956-1390 limits assumed): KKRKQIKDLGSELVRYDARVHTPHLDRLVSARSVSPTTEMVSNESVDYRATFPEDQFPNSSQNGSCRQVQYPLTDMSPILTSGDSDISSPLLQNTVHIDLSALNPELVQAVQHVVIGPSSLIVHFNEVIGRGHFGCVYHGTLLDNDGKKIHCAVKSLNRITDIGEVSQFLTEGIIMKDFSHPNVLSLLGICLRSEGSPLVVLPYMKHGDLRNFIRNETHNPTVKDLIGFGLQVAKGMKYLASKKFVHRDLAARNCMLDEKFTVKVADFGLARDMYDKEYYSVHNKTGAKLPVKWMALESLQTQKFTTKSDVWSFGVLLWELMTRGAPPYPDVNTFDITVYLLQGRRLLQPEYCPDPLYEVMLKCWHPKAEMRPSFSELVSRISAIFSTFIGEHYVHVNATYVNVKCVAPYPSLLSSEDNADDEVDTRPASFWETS

COc1cc2c(cc1Nc1ncc(Cl)c(N[C@H]3[C@@H](C(N)=O)[C@@H]4C=C[C@H]3C4)n1)CCN(CC(C)(F)F)CC2 [Example 782, (1S,2S,3R,4R)-3-{5-Chloro-2-[3-(2,2-difluoro-propyl)-8-methoxy-2,3,4,5-tetrahydro-1H-benzo[d]azepin-7-ylamino]-pyrimidin-4-ylamino}-bicyclo[2.2.1]hept-5-ene-2-carboxylic acid amide]
IC50 [1, 3]: < 100 nM
IC50 [2, 4]: > 10000 nM

COCCN1CCc2ccc(Nc3ncc(Cl)c(N[C@H]4CCC[C@H]4NS(C)(=O)=O)n3)cc2CC1 [Example 1501, N-((1R,2S)-2-{5-Chloro-2-[3-(2-methoxy-ethyl)-2,3,4,5-tetrahydro-1H-benzo[d]azepin-7-ylamino]-pyrimidin-4-ylamino}-cyclopentyl)-methanesulfonamide]
IC50 [1, 5]: 100 to 1000 nM
IC50 [2, 6]: 1000 to 10000 nM

CCN1CCc2ccc(Nc3ncc(Cl)c(Nc4ccccc4C(=O)NC)n3)cc2CC1 [Example 31, 2-[5-Chloro-2-(3-ethyl-2,3,4,5-tetrahydro-1H-benzo[d]azepin-7-ylamino)-pyrimidin-4-ylamino]-N-methyl-benzamide]
IC50 [1, 7]: < 100 nM
IC50 [2, 8]: < 100 nM

CCN1C(=O)CN(CCO)Cc2ccc(Nc3ncc(Cl)c(Nc4c(F)cccc4C(=O)NC)n3)cc21 [Example 1873, 2-{5-Chloro-2-[1-ethyl-4-(2-hydroxy-ethyl)-2-oxo-2,3,4,5-tetrahydro-1H-benzo[e][1,4]diazepin-8-ylamino]-pyrimidin-4-ylamino}-3-fluoro-N-methyl-benzamide]
IC50 [1, 5]: 100 to 1000 nM
IC50 [2, 6]: < 100 nM

CNC(=O)c1cccc(Br)c1Nc1nc(Nc2ccc3c(c2)CCOC(=O)N3C)ncc1Cl [Example 1751, 3-Bromo-2-[5-chloro-2-(5-methyl-6-oxo-5,6,8,9-tetrahydro-7-oxa-5-aza-benzocyclohepten-2-ylamino)-pyrimidin-4-ylamino]-N-methyl-benzamide]
IC50 [1, 5]: 1000 to 10000 nM
IC50 [2, 6]: < 100 nM

COc1c(Nc2ncc(Cl)c(Nc3ccccc3S(=O)(=O)N(C)C)n2)ccc2c1CCC(N1CCCC(O)C1)CC2 (mixture of isomers) [Example 907, 2-{5-Chloro-2-[7-(3-hydroxy-piperidin-1-yl)-1-methoxy-6,7,8,9-tetrahydro-5H-benzocyclohepten-2-ylamino]-pyrimidin-4-ylamino}-N,N-dimethyl-benzenesulfonamide]
IC50 [1, 3]: < 100 nM
IC50 [2, 4]: > 10000 nM

CNC(=O)CN1CCc2cc(Nc3ncc(Cl)c(N[C@H]4[C@@H](C(N)=O)[C@@H]5C=C[C@H]4C5)n3)c(OC)cc2CC1 [Example 1124, (1S,2S,3R,4R)-3-[5-Chloro-2-(8-methoxy-3-methylcarbamoylmethyl-2,3,4,5-tetrahydro-1H-benzo[d]azepin-7-ylamino)-pyrimidin-4-ylamino]-bicyclo[2.2.1]hept-5-ene-2-carboxylic acid amide]
IC50 [1, 9]: < 100 nM
IC50 [2, 10]: > 10000 nM

COCCN1CCc2ccc(Nc3ncc(Cl)c(Nc4ccccc4-c4ncccc4C)n3)cc2CC1 [Example 972, 5-Chloro-N*2*-[3-(2-methoxy-ethyl)-2,3,4,5-tetrahydro-1H-benzo[d]azepin-7-yl]-N*4*-[2-(3-methyl-pyridin-2-yl)-phenyl]-pyrimidine-2,4-diamine]
IC50 [1, 3]: < 100 nM
IC50 [2, 4]: 100 to 1000 nM

C#CCNC(=O)c1sccc1Nc1nc(Nc2ccc3c(c2)OCCCN3C(=O)OCCCN(C)C)ncc1Cl [Example 1429, 3-[5-Chloro-4-(2-prop-2-ynylcarbamoyl-thiophen-3-ylamino)-pyrimidin-2-ylamino]-7,8-dihydro-6H-5-oxa-9-aza-benzocycloheptene-9-carboxylic acid 3-dimethylamino-propyl ester]
IC50 [1, 9]: 100 to 1000 nM
IC50 [2, 10]: 100 to 1000 nM

CCN1C(=O)C(NC(=O)C(F)(F)F)CCc2c1ccc(Nc1ncc(Cl)c(N[C@H]3[C@@H](C(N)=O)[C@@H]4C=C[C@H]3C4)n1)c2OC (stereo partly drawn) [Example 1330, (1S,2S,3R,4R)-3-{5-Chloro-2-[1-ethyl-6-methoxy-2-oxo-3-(2,2,2-trifluoro-acetylamino)-2,3,4,5-tetrahydro-1H-benzo[b]azepin-7-ylamino]-pyrimidin-4-ylamino}-bicyclo[2.2.1]hept-5-ene-2-carboxylic acid amide]
IC50 [1, 9]: < 100 nM
IC50 [2, 10]: > 10000 nM

COc1cc2c(cc1Nc1ncc(Cl)c(Nc3ccccc3OC)n1)CCOC(=O)N2C [Example 1508, 2-[5-Chloro-4-(2-methoxy-phenylamino)-pyrimidin-2-ylamino]-3-methoxy-5-methyl-8,9-dihydro-5H-7-oxa-5-aza-benzocyclohepten-6-one]
IC50 [1, 5]: < 100 nM
IC50 [2, 6]: > 10000 nM

CN1C(=O)CCC(C)(C)c2cc(Nc3ncc(Cl)c(N[C@@H]4CCCC[C@H]4N(C)S(C)(=O)=O)n3)ccc21 [Example 1680, N-{(1R,2R)-2-[5-Chloro-2-(1,5,5-trimethyl-2-oxo-2,3,4,5-tetrahydro-1H-benzo[b]azepin-7-ylamino)-pyrimidin-4-ylamino]-cyclohexyl}-N-methyl-methanesulfonamide]
IC50 [1, 5]: < 100 nM
IC50 [2, 6]: 100 to 1000 nM

COCCN1CCc2ccc(Nc3ncc(Cl)c(Nc4ccccc4S(=O)(=O)N4CCC(O)C4)n3)cc2CC1 (stereo not shown) [Example 1492, 1-(2-{5-Chloro-2-[3-(2-methoxy-ethyl)-2,3,4,5-tetrahydro-1H-benzo[d]azepin-7-ylamino]-pyrimidin-4-ylamino}-benzenesulfonyl)-pyrrolidin-3-ol]
IC50 [1, 5]: < 100 nM
IC50 [2, 6]: < 100 nM

COc1ccc2c(c1Nc1ncc(Cl)c(N[C@@H]3CCCC[C@H]3NS(C)(=O)=O)n1)CN(Cc1ccccc1)CC(=O)N2 [Example 1654, N-{(1R,2R)-2-[2-(4-Benzyl-7-methoxy-2-oxo-2,3,4,5-tetrahydro-1H-benzo[e][1,4]diazepin-6-ylamino)-5-chloro-pyrimidin-4-ylamino]-cyclohexyl}-methanesulfonamide]
IC50 [1, 5]: 1000 to 10000 nM
IC50 [2, 6]: > 10000 nM

CCN1CCCOc2cc(Nc3ncc(Cl)c(Nc4ccc(N5CCOCC5)cc4OC)n3)c(F)cc21 [Example 1688, 5-Chloro-N*2*-(9-ethyl-2-fluoro-6,7,8,9-tetrahydro-5-oxa-9-aza-benzocyclohepten-3-yl)-N*4*-(2-methoxy-4-morpholin-4-yl-phenyl)-pyrimidine-2,4-diamine]
IC50 [1, 5]: 100 to 1000 nM
IC50 [2, 6]: > 10000 nM

CNC(=O)c1cccc(F)c1Nc1nc(Nc2ccc3c(c2)NC(=O)C(NCCOC)CC3)ncc1Cl (stereo not shown) [Example 1495, 2-{5-Chloro-2-[3-(2-methoxy-ethylamino)-2-oxo-2,3,4,5-tetrahydro-1H-benzo[b]azepin-8-ylamino]-pyrimidin-4-ylamino}-3-fluoro-N-methyl-benzamide]
IC50 [1, 5]: 1000 to 10000 nM
IC50 [2, 6]: 100 to 1000 nM

CNC(=O)c1ccccc1Nc1nc(Nc2ccc3c(c2)CNC(=O)CCN3)ncc1Cl [Example 1302, 2-[5-Chloro-2-(4-oxo-1,2,3,4,5,6-hexahydro-benzo[b][1,5]diazocin-8-ylamino)-pyrimidin-4-ylamino]-N-methyl-benzamide]
IC50 [1, 9]: < 100 nM
IC50 [2, 10]: < 100 nM

COCCOC(=O)C1[C@@H]2C=C[C@@H](C2)[C@H]1Nc1nc(Nc2ccc3c(c2OC)CC[C@@H](N2CCOCC2)CC3)ncc1Cl (single isomer, unassigned) [Example 905]
IC50 [1, 3]: 100 to 1000 nM
IC50 [2, 4]: > 10000 nM

CC(C)[C@H](Nc1nc(Nc2ccc3c(c2)CC(=O)N(C)CC3)ncc1Cl)C(N)=O [Example 1823, (S)-2-[5-Chloro-2-(3-methyl-4-oxo-2,3,4,5-tetrahydro-1H-benzo[d]azepin-7-ylamino)-pyrimidin-4-ylamino]-3-methyl-butyramide]
IC50 [1, 5]: 1000 to 10000 nM
IC50 [2, 6]: > 10000 nM

CCN1C(=O)CCCc2ccc(Nc3ncc(Cl)c(Nc4c(C)cccc4C(=O)NC)n3)cc21 [Example 360, 2-[5-Chloro-2-(1-ethyl-2-oxo-2,3,4,5-tetrahydro-1H-benzo[b]azepin-8-ylamino)-pyrimidin-4-ylamino]-3,N-dimethyl-benzamide]
IC50 [1, 7]: 1000 to 10000 nM
IC50 [2, 8]: < 100 nM

CCN1C(=O)CCCc2c1ccc(Nc1ncc(Cl)c(N[C@H]3CCC[C@H]3C(=O)NC)n1)c2OC (relative stereo) [Example 373, cis-2-[5-Chloro-2-(1-ethyl-6-methoxy-2-oxo-2,3,4,5-tetrahydro-1H-benzo[b]azepin-7-ylamino)-pyrimidin-4-ylamino]-cyclopentanecarboxylic acid methylamide]
IC50 [1, 7]: < 100 nM
IC50 [2, 8]: > 10000 nM

COc1cc(N2CCN(C)CC2)ccc1Nc1nc(Nc2ccc3c(c2)CCCC(=O)N3C(C)C)ncc1Cl [Example 674, 7-{5-Chloro-4-[2-methoxy-4-(4-methyl-piperazin-1-yl)-phenylamino]-pyrimidin-2-ylamino}-1-isopropyl-1,3,4,5-tetrahydro-benzo[b]azepin-2-one]
IC50 [1, 3]: < 100 nM
IC50 [2, 4]: 1000 to 10000 nM

CNC(=O)c1cccc(F)c1Nc1nc(Nc2ccc3c(c2)C(=O)NCCO3)ncc1Cl [Example 1222, 2-[5-Chloro-2-(5-oxo-2,3,4,5-tetrahydro-1,4-benzoxazepin-7-ylamino)-pyrimidin-4-ylamino]-3-fluoro-N-methyl-benzamide]
IC50 [1, 9]: 100 to 1000 nM
IC50 [2, 10]: 100 to 1000 nM
